Data on one compound can be found in patent publication US9476099B2 (TRUSTEES OF DARTMOUTH COLLEGE, priority 2012, dated 2016).

The test system of the experiment is gene promoters in NT2/D1-R1 control and DNMT3B knockdown cells. Kind of experiment: Genome-wide promoter methylation analysis, HumanMethylation27 BeadChip (Table 15). The experiment is classed as cell-based, human. The note with it: three days low-dose decitabine, control NT2/D1-R1. As for the experimental part:
DNA methylation analysis was performed in samples in triplicate using the […] […] assay with the HumanMethylation27 BeadChip ([…]) and the BeadChip was scanned on the BeadArray Reader ([…]), according to the manufacturer's instructions. Raw data was normalized and analyzed with Genome Studio software ([…]). The HumanMethylation27 BeadChip assays 27,578 CpGs covering more than 14,000 genes, mostly from promoter regions. […] Hierarchical clustering was performed as stated above. HumanMethylation27 BeadChip data and gene expression microarray data were submitted to NCBI GEO.

Regarding `Nc1ncn([C@H]2C[C@H](O)[C@@H](CO)O2)c(=O)n1` [decitabine, 5-aza-deoxycytidine], the “genes with altered promoter methylation” value worked out at 388 genes. The “genes with decreased levels of promoter methylation” value (of 388 genes) turned out to be 305 genes.
